Test results taken from article PMC6253991, “2-(3,4-Dihydro-4-Oxothieno[2,3-d]pyrimidin-2-ylthio) Acetamides as a New Class of Falcipain-2 Inhibitors. 3. Design, Synthesis and Biological Evaluation” (Molecules, 2009).

Tests used:
[1] = target: T1, recombinant Falcipain-2 (FP-2) (Plasmodium falciparum, UniProt Q8I6U4); experiment: Falcipain-2 enzyme inhibition assay (fluorogenic substrate Z-Leu-Arg-AMC); assay type: biochemical; conditions: for IC50 / inhibition at 10 µM: FP-2 30 nM, pH 5.5, 30 min preincubation; for IC50: substrate Z-Leu-Arg-AMC 25 μM; for inhibition at 10 µM: pH 5.5, compound at 10 μM, substrate 25 μM, read-out: Inhibition rate at 10 μM (%)
T1 construct: made in house
T1 sequence (Q8I6U4 244-484): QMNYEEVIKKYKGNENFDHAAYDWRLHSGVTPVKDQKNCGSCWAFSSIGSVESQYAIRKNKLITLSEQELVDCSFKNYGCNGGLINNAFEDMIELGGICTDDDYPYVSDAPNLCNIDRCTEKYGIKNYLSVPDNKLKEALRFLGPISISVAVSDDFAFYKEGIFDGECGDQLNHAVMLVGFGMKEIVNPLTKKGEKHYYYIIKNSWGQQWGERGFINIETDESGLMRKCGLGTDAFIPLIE
Method: For the primary assay, the percent inhibitions of the compounds at 10 μM were measured. […] Therefore, we determined their IC50 values (Table 1).
The purification and refolding of recombinant protein Falcipain-2 was performed as described by Shenai et al. IC50 values against recombinant Falcipain-2 were determined as described previously. FP-2 (30 nM) was incubated for 30 min at room temperature in 100 mM sodium acetate, pH 5.5, 10 mM DTT, with different concentrations of tested inhibitors. Inhibitor solutions were prepared from stock in DMSO (maximum concentration of DMSO in the assay was 1%). After 30 min incubation, the substrate Z-Leu-Arg-AMC (benzoxycarbonyl-Leu-Arg-7-amino-4-methylcoumarin, Bachem AG) in the same buffer was added to a final concentration of 25 μM. The increase in fluorescence (excitation at 355 nm and emission at 460 nm) was monitored for 30 min at room temperature with an automated microtiter plate spectrofluorimeter (Molecular Devices, Flex station). Half-maximal inhibitory concentration (IC50) was determined from plots of percent activity over compound concentration using GraphPad Prism software.

SMILES: C=CCn1c(SCC(=O)Nc2sc3c(c2C(N)=O)CCC3)nc2scc(-c3ccccc3)c2c1=O [Compound 1, 2-(2-(3-Allyl-3,4-dihydro-4-oxo-5-phenylthieno[2,3-d]pyrimidin-2-ylthio)acetamido)-5,6-dihydro-4H-cyclopenta[b]thiophene-3-carboxamide]
- IC50 [1]: 2.81 µM
- inhibition at 10 µM [1]: 88.7%

SMILES: NC(=O)c1c(NC(=O)CSc2nc3scc(-c4ccccc4)c3c(=O)n2C2CCCCC2)sc2c1CCC2 [Compound 2a, 2-(2-(3-Cyclohexyl-3,4-dihydro-4-oxo-5-phenylthieno[2,3-d]pyrimidin-2-ylthio)acetamido)-5,6-dihydro-4H-cyclopenta[b]thiophene-3-carboxamide]
- IC50 [1]: 1.46 µM
- inhibition at 10 µM [1]: > 90%
- inhibitory activity relative to prototype compound 1 (times greater) ([1]; ratio of IC50s against FP-2 versus compound 1): ~ 2 times

SMILES: NC(=O)c1c(NC(=O)CSc2nc3scc(-c4ccccc4)c3c(=O)n2-c2cccc(F)c2)sc2c1CCC2 [Compound 2b]
- IC50 [1]: 2.05 µM
- inhibition at 10 µM [1]: 79%
- melting point: 234 to 239 °C

SMILES: NC(=O)c1c(NC(=O)CSc2nc3scc(-c4ccccc4)c3c(=O)n2-c2ccc([N+](=O)[O-])cc2)sc2c1CCC2 [Compound 2c]
- IC50 [1]: 2.77 µM
- inhibition at 10 µM [1]: 85.4%
- melting point: 271 to 274 °C

SMILES: NC(=O)c1c(NC(=O)CSc2nc3scc(-c4ccccc4)c3c(=O)n2-c2ccc(Cl)cc2)sc2c1CCC2 [Compound 2d]
- IC50 [1]: 4.3 µM
- inhibition at 10 µM [1]: 84.7%
- melting point: 247 to 249 °C

SMILES: NC(=O)c1c(NC(=O)CSc2nc3scc(-c4ccccc4)c3c(=O)n2Cc2ccccc2)sc2c1CCC2 [Compound 2e]
- IC50 [1]: 5.74 µM
- inhibition at 10 µM [1]: > 90%
- melting point: 163 to 167 °C

SMILES: C=CCn1c(SCC(=O)Nc2sc3c(c2C(N)=O)CCC3)nc2sc3c(c2c1=O)CCCC3 [Compound 3a]
- IC50 [1]: 5.77 µM
- inhibition at 10 µM [1]: 82.2%

SMILES: C=CCn1c(SCC(=O)Nc2sc3c(c2C(N)=O)CCC3)nc2scc(-c3ccc(Cl)cc3)c2c1=O [Compound 3b, 2-(2-(3-Allyl-3,4-dihydro-4-oxo-5-(4-chlorophenyl)thieno[2,3-d]pyrimidin-2-ylthio)acetamido)-5,6-dihydro-4H-cyclopenta[b]thiophene-3-carboxamide]
- IC50 [1]: 2.95 µM
- inhibition at 10 µM [1]: 85.7%

SMILES: C=CCn1c(SCC(=O)Nc2sc3c(c2C(N)=O)CCC3)nc2scc(-c3cccc([N+](=O)[O-])c3)c2c1=O [Compound 3c, 2-(2-(3-Allyl-3,4-dihydro-4-oxo-5-(3-nitrophenyl)thieno[2,3-d]pyrimidin-2-ylthio)acetamido)-5,6-dihydro-4H-cyclopenta[b]thiophene-3-carboxamide]
- inhibition at 10 µM [1]: 53%

SMILES: C=CCn1c(SCC(=O)Nc2sc3c(c2C(=O)OCC)CCC3)nc2scc(-c3ccccc3)c2c1=O [Compound 4a, Ethyl 2-(2-(3-allyl-3,4-dihydro-4-oxo-5-phenylthieno[2,3-d]pyrimidin-2-ylthio)acetamido)-5,6-dihydro-4H-cyclopenta[b]thiophene-3-carboxylate]
- IC50 [1]: 6.63 µM
- inhibition at 10 µM [1]: 93.3%
- melting point: 166 to 170 °C

SMILES: C=CCn1c(SCC(=O)Nc2ccc(C(=O)OCC)cc2)nc2scc(-c3ccccc3)c2c1=O [Compound 4b, Ethyl 4-(2-(3-allyl-3,4-dihydro-4-oxo-5-phenylthieno[2,3-d]pyrimidin-2-ylthio)acetamido) benzoate]
- IC50 [1]: 5.7 µM
- inhibition at 10 µM [1]: 94.3%

SMILES: C=CCn1c(SCC(=O)Nc2nc3ccccc3s2)nc2scc(-c3ccccc3)c2c1=O [Compound 4c, 2-(3-Allyl-3,4-dihydro-4-oxo-5-phenylthieno[2,3-d]pyrimidin-2-ylthio)-N-(benzo[d]thiazol-2-yl)-acetamide]
- IC50 [1]: 3.31 µM
- inhibition at 10 µM [1]: 90.3%
- melting point: 192 to 194 °C

SMILES: C=CCn1c(SCC(=O)Nc2sc3c(c2C(N)=O)CCCC3)nc2scc(-c3ccccc3)c2c1=O [Compound 4d, 2-(2-(3-Alyl-3,4-dihydro-4-oxo-5-phenylthieno[2,3-d]pyrimidin-2-ylthio)acetamido)-4,5,6,7-tetra-hydrobenzo[b]thiophene-3-carboxamide]
- melting point: 212 to 214 °C

SMILES: C=CCn1c(SCC(=O)Nc2sc(C(=O)OCC)c(C)c2C(N)=O)nc2scc(-c3ccccc3)c2c1=O [Compound 4e, Ethyl 5-(2-(3-allyl-3,4-dihydro-4-oxo-5-phenylthieno[2,3-d]pyrimidin-2-ylthio)acetamido)-4-carbamoyl-3-methylthiophene-2-carboxylate]
- IC50 [1]: 5.58 µM
- inhibition at 10 µM [1]: 72%
- melting point: 136 to 140 °C

SMILES: C=CCn1c(SCC(=O)Nc2ccc(F)c(Cl)c2)nc2scc(-c3ccccc3)c2c1=O [Compound 4f, 2-(3-Allyl-3,4-dihydro-4-oxo-5-phenylthieno[2,3-d]pyrimidin-2-ylthio)-N-(3-chloro-4-fluorophenyl)-acetamide]
- IC50 [1]: 5.43 µM
- inhibition at 10 µM [1]: > 90%
